Assay results reported in ChEMBL document CHEMBL3044998, “Improgan-like Analgesics: A Family of Compounds Derived From Histamine Anatgonists” (Med Chem Res, 2004).
Activity calls are given as the source filed them. The calls are words filed in the database; no cut-off is given here.

Columns and labels:
Rattus norvegicus [1] = experiment: Antinociceptive activity in icv dosed Rattus norvegicus albino (rat) tus norvegicus Sprague-Dawley (rat) assessed as increase in thermal-stimulus induced tail flick latency after 5 to 10 min; assay type: functional; conditions: for Emax: Rattus norvegicus, Sprague-Dawley albino, Tail, central
Rattus norvegicus [2] = experiment: Antinociceptive activity in icv dosed Rattus norvegicus albino (rat) tus norvegicus Sprague-Dawley (rat) assessed as maximal increase in paw withdrawal latency after 5 to 10 min by hot plate test; assay type: functional; conditions: for Emax: Rattus norvegicus, Sprague-Dawley albino, central
Histamine H3 receptor [3] = target: Histamine H3 receptor (Homo sapiens, UniProt Q9Y5N1); experiment: Binding affinity to histamine H3 receptor (unknown origin)
Histamine H2 receptor = Histamine H2 receptor (Homo sapiens, UniProt P25021); experiment: Binding affinity to histamine H2 receptor (unknown origin)
Rattus norvegicus [4] = experiment: Neurotoxicity in icv dosed Rattus norvegicus albino (rat) tus norvegicus Sprague-Dawley (rat) assessed as motor impairment; assay type: toxicity, organism-based; conditions: in vivo, icv_or_intrathecal
Rattus norvegicus [5] = experiment: Toxicity in icv dosed Rattus norvegicus albino (rat) tus norvegicus Sprague-Dawley (rat) assessed as behavioral changes; assay type: organism-based; conditions: in vivo, icv_or_intrathecal
Rattus norvegicus [6] = experiment: Antinociceptive activity in icv dosed Rattus norvegicus albino (rat) tus norvegicus Sprague-Dawley (rat) assessed as increase in thermal-stimulus induced tail flick latency; assay type: functional, organism-based; conditions: TDE = time-dependent effect
Rattus norvegicus [7] = experiment: Antinociceptive activity in icv dosed Rattus norvegicus albino (rat) tus norvegicus Sprague-Dawley (rat) assessed as maximal increase in paw withdrawal latency by hot plate test; assay type: functional, organism-based; conditions: TDE = time-dependent effect
Histamine H3 receptor [8] = target: Histamine H3 receptor (Cavia porcellus, UniProt Q9JI35); experiment: Binding affinity to histamine H3 receptor in Cavia porcellus (guinea pig) ileum; assay type: tissue-based
Rattus norvegicus [9] = experiment: Antinociceptive activity in Rattus norvegicus albino (rat) tus norvegicus Sprague-Dawley (rat) assessed as increase in thermal-stimulus induced tail flick latency at 20 to 60 ug, icv after 30 to 60 min; assay type: functional, organism-based
Rattus norvegicus [10] = experiment: Antinociceptive activity in Rattus norvegicus albino (rat) tus norvegicus Sprague-Dawley (rat) assessed as maximal increase in paw withdrawal latency at 20 to 60 ug, icv after 30 to 60 min by hot plate test; assay type: functional, organism-based
Rattus norvegicus [11] = experiment: Antinociceptive activity in Rattus norvegicus albino (rat) tus norvegicus Sprague-Dawley (rat) assessed as increase in thermal-stimulus induced tail flick latency at 20 to 60 ug, icv; assay type: functional, organism-based; conditions: TDE = time-dependent effect
Rattus norvegicus [12] = experiment: Toxicity in Rattus norvegicus albino (rat) tus norvegicus Sprague-Dawley (rat) assessed as behavioral changes at 20 to 60 ug, icv; assay type: organism-based; conditions: in vivo, icv_or_intrathecal
Rattus norvegicus [13] = experiment: Antinociceptive activity in Rattus norvegicus albino (rat) tus norvegicus Sprague-Dawley (rat) assessed as maximal increase in paw withdrawal latency at 20 to 60 ug, icv by hot plate test; assay type: functional, organism-based; conditions: TDE = time-dependent effect
Rattus norvegicus [14] = experiment: Neurotoxicity in Rattus norvegicus albino (rat) tus norvegicus Sprague-Dawley (rat) assessed as motor impairment at 20 to 60 ug, icv; assay type: toxicity, organism-based; conditions: in vivo, icv_or_intrathecal

Sequence of Histamine H3 receptor (Cavia porcellus, UniProt Q9JI35) (Q9JI35 whole entry): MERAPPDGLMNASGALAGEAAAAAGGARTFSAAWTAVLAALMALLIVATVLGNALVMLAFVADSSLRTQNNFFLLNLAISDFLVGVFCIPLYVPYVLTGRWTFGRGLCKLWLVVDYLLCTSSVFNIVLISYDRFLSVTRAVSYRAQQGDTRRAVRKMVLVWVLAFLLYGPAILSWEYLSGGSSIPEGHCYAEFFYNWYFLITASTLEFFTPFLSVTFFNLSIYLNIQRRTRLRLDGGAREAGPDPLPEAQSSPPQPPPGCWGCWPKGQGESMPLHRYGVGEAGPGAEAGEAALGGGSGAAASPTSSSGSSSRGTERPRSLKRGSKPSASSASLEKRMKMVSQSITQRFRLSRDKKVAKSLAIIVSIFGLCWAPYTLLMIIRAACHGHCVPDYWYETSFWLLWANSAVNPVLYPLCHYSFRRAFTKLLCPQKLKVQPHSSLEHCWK
Sequence of Histamine H3 receptor (Homo sapiens, UniProt Q9Y5N1) (Q9Y5N1 whole entry): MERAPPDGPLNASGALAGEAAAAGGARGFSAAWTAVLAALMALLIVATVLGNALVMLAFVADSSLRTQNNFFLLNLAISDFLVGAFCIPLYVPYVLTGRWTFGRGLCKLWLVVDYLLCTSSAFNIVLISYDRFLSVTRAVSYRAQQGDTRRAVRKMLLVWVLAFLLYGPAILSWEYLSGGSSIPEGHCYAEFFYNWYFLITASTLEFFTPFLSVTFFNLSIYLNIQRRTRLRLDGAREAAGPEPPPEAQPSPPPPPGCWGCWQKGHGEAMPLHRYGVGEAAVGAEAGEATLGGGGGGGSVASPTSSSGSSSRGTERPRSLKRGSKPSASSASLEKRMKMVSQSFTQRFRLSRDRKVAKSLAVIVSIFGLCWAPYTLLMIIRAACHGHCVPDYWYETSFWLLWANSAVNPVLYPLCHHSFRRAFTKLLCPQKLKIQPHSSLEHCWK
Sequence of Histamine H2 receptor (P25021 whole entry): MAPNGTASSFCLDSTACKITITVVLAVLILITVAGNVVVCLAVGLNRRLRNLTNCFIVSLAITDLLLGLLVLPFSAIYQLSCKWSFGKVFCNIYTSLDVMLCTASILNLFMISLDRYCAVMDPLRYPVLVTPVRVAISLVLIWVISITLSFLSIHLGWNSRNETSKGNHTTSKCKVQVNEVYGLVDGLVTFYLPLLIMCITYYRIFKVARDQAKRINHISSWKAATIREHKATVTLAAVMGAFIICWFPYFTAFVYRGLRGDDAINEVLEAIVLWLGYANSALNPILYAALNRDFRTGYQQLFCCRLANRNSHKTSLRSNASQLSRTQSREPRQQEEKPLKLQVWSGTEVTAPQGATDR

Row | Compound | ED50 (Rattus norvegicus [1]) [nmol] | ED50 (Rattus norvegicus [2]) [nmol] | further results
1 | CNC(=S)NCCSCc1[nH]cnc1C [METIAMIDE] | 370 | 370 | –
2 | S=C(NCCCCc1c[nH]cn1)NC1CCCCC1 | 285 | 285 | –
3 | CNC(=S)NCCCCc1cnc[nH]1 [BURIMAMIDE] | – | – | Kd (Histamine H3 receptor [3]): 0.1 µM; Kd (Histamine H2 receptor): 7.8 µM; Activity (Rattus norvegicus [4]): Non-toxic; Activity (Rattus norvegicus [5]): Non-toxic
4 | CN/C(=C/[N+](=O)[O-])NCCCn1ccnc1 | – | – | Activity (Rattus norvegicus [4]): Non-toxic; Activity (Rattus norvegicus [5]): Non-toxic
5 | CN/C(=C\[N+](=O)[O-])NCCCCc1c[nH]cn1 | 104 | 104 | –
6 | CNC(=C[N+](=O)[O-])NCCSCc1ccc(CN(C)C)o1 [RANITIDINE] | 109 | 109 | –
7 | C/N=C(\S)NCCCn1ccnc1 | >504 | >504 | –
8 | CNC(=S)N1CCC(c2c[nH]cn2)CC1 | 201 | 201 | –
9 | CN/C(=N\C#N)NCCSCc1ccccc1 | >403 | >403 | –
10 | C/N=C(\S)NCCCCCCc1c[nH]cn1 | 87 | 87 | –
11 | CN/C(=N\C#N)NCCSCc1ccccn1 | >602 | >602 | –
12 | S=C(NCCc1c[nH]cn1)Nc1ccccc1 | 89 | 89 | –
13 | C/N=C(\S)NCCc1c[nH]cn1 | 85 | 85 | –
14 | CN/C(=N\CCSCc1nc[nH]c1C)NC#N [CIMETIDINE] | 464 | 464 | Activity (Rattus norvegicus [6]): tde; Activity (Rattus norvegicus [1]): Dose-dependent effect; Activity (Rattus norvegicus [2]): Dose-dependent effect; Activity (Rattus norvegicus [7]): tde
15 | c1ccc(NCCCOc2cccc(CN3CCCCC3)c2)cc1 [SKF95299] | >308 | >308 | –
16 | CN/C(=N\C#N)NCCCc1c[nH]cn1 [IMPROGAN] | 330 | 330 | Activity (Rattus norvegicus [6]): tde; Activity (Rattus norvegicus [1]): Dose-dependent effect; Kd (Histamine H3 receptor [8]): 5 µM; Activity (Rattus norvegicus [4]): Non-toxic; Activity (Rattus norvegicus [2]): Dose-dependent effect; Activity (Rattus norvegicus [5]): Non-toxic; Activity (Rattus norvegicus [7]): tde

Row | Compound | ED50 (Rattus norvegicus [1]) [nmol] | ED50 (Rattus norvegicus [2]) [nmol] | further results
17 | CN/C(=N/CCSCc1nc[nH]c1C)NC#N [CIMETIDINE] | – | – | Activity (Rattus norvegicus [4]): Non-toxic; Activity (Rattus norvegicus [5]): Non-toxic
18 | NC(=NCc1ccc(Cl)cc1)SCCCc1cnc[nH]1 [CLOBENPROPIT] | – | – | Activity (Rattus norvegicus [4]): Non-toxic; Activity (Rattus norvegicus [5]): Non-toxic
19 | CNC(=S)NCCSCc1ccc(CN(C)C)o1 | 117 | 117 | Activity (Rattus norvegicus [6]): tde; Activity (Rattus norvegicus [4]): Non-toxic; Activity (Rattus norvegicus [5]): Non-toxic; Activity (Rattus norvegicus [7]): tde
20 | C/N=C(/NC#N)NCCSCc1csc(NC(=N)N)n1 [TIOTIDINE] | >320 | >320 | –
21 | S=C(NCCCCc1c[nH]cn1)NCc1ccccc1 | 105 | 105 | –
22 | S=C(Nc1ccccc1)N1CCC(c2c[nH]cn2)CC1 | – | – | Emax (Rattus norvegicus [1]): < 100%; Emax (Rattus norvegicus [2]): < 100%
23 | S=C(NCCCCc1c[nH]cn1)Nc1ccccc1 | 81 | 81 | –
24 | O=C(NCCCCc1c[nH]cn1)Nc1ccccc1 | 65 | 65 | –
25 | S=C(NC1CCCCC1)N1CCC(c2cnc[nH]2)CC1 [THIOPERAMIDE] | >342 | >342 | –
26 | C/N=C(\S)NCCCCc1c[nH]cn1 [BURIMAMIDE] | 184 | 184 | Activity (Rattus norvegicus [6]): tde; Activity (Rattus norvegicus [1]): Dose-dependent effect; Activity (Rattus norvegicus [2]): Dose-dependent effect; Activity (Rattus norvegicus [7]): tde
27 | C/N=C(\S)NCCCc1c[nH]cn1 [NORBURIMAMIDE] | 217 | 217 | –
28 | c1cc(CN2CCCCC2)cc(OCCCNc2nc3ccccc3s2)c1 [ZOLANTIDINE] | >262 | >262 | –
29 | S=C(NCCCCCCc1c[nH]cn1)Nc1ccccc1 | – | – | Emax (Rattus norvegicus [1]): < 100%; Emax (Rattus norvegicus [2]): < 100%
30 | S=C(NCCCCc1c[nH]cn1)NCCc1ccccc1 | 80 | 80 | –
31 | CN/C(=N\C#N)NCCSCc1ccc(CN(C)C)o1 | 67 | 67 | Activity (Rattus norvegicus [9]): inactive; Activity (Rattus norvegicus [10]): inactive; Activity (Rattus norvegicus [1]): Dose-dependent effect; Activity (Rattus norvegicus [11]): tde; Activity (Rattus norvegicus [2]): Dose-dependent effect; Activity (Rattus norvegicus [12]): Non-toxic; Activity (Rattus norvegicus [13]): tde; Activity (Rattus norvegicus [14]): Non-toxic
